Target: T1, IKKε (Homo sapiens, UniProt Q14164)
T1 construct: His-tag; made in house; host or cells: Sf9 insect cells
T1 sequence (Q14164 1-716): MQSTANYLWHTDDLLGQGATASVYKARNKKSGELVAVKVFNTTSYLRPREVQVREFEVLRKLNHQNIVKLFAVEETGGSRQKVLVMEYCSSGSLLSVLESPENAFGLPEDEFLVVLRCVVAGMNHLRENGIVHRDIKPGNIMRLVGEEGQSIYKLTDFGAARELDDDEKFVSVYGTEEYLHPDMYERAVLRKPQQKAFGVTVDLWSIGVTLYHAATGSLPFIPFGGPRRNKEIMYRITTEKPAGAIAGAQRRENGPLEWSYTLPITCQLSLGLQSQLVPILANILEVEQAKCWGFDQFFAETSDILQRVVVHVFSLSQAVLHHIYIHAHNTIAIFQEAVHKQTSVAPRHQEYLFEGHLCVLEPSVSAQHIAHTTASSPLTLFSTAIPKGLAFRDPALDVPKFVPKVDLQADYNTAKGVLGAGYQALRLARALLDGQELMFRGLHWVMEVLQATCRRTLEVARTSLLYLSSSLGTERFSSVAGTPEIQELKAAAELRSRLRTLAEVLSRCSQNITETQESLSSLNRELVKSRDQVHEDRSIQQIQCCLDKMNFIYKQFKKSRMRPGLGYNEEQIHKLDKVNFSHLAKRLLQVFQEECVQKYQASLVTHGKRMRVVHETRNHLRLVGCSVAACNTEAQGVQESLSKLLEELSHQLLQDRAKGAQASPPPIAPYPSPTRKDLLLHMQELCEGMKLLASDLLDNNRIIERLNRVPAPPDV
Experiment: In-vitro IKKε kinase assay ([γ33]ATP filter-plate)
Format: biochemical
Details: text bins; read-out: IC50 for inhibition of the kinase activity of IKKε
In short: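 Phosphorylation of casein or myelin basic protein was counted by P-81 filter capture after 30-45 min reactions stopped with phosphoric acid, with counts normalized to DMSO after background subtraction. ATP was twice Km: 60 μM for TBK1 and 32 μM for IKKε, plus [γ33]ATP. Sf9-expressed His-tag enzymes were used at normal/sensitized levels of 0.1/0.02 μg/ml (TBK1) and 0.1/0.015 μg/ml (IKKε).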

SMILES	IC50 [nM]
CC(C)(COc1ccc(-c2ccnc(Nc3ccc(N4CCOCC4)cc3)n2)cc1C#N)C(=O)N1CCOCC1 [compound 459, 2-[2,2-dimethyl-3-(morpholin-4-yl)-3-oxopropoxy]-5-(2-{[4-(morpholin-4-yl)phenyl]amino}pyrimidin-4-yl)benzonitrile]	50 to 500
N#Cc1cc(-c2ccnc(Nc3ccc(N4CCOCC4)cc3)n2)ccc1NC(=O)Cc1ccccc1 [compound 435, N-[2-cyano-4-(2-{[4-(morpholin-4-yl)phenyl]amino}pyrimidin-4-yl)phenyl]-2-phenylacetamide]	50 to 500
N#Cc1cc(-c2ccnc(Nc3cccc(S(N)(=O)=O)c3)n2)ccc1OC1CCOCC1 [Example 146, 3-({4-[3-cyano-4-(tetrahydro-2H-pyran-4-yloxy)phenyl]pyrimidin-2-yl}amino) benzenesulfonamide]	5 to 50
COc1ccc(-c2ccnc(Nc3ccc(S(=O)(=O)N4CCN(C)CC4)cc3)n2)cc1C#N [compound 308, 2-Methoxy-5-[2-({4-[(4-methylpiperazin-1-yl)sulfonyl]phenyl}amino)pyrimidin-4-yl]benzonitrile]	50 to 500
COc1cc(Nc2nccc(-c3ccc(OC4CCN(C(=O)CO)C4)c(C#N)c3)n2)ccc1N1CCC(N2CCN(C)CC2)CC1 (stereo not drawn) [compound 513, 2-{[1-(hydroxyacetyl)pyrrolidin-3-yl]oxy}-5-[2-({3-methoxy-4-[4-(4-methylpiperazin-1-yl)piperidin-1-yl]phenyl}amino)pyrimidin-4-yl]benzonitrile]	50 to 500
COc1ccc(-c2ccnc(Nc3cc(CN4CCC[C@H]4C(=O)N(C)C)c(OC)c(OC)c3)n2)cc1C#N [Example 245, 1-(5-{[4-(3-Cyano-4-methoxyphenyl)pyrimidin-2-yl]amino}-2,3-dimethoxybenzyl)-N,N-dimethylprolinamide]	50 to 500
N#Cc1cc(-c2ccnc(Nc3ccc(-c4cn[nH]c4)cc3)n2)ccc1OC1CCOCC1 [compound 579, 5-(2-{[4-(1H-Pyrazol-4-yl)phenyl]amino}pyrimidin-4-yl)-2-(tetrahydro-2H-pyran-4-yloxy)benzonitrile]	< 5
CC(=O)N1CC(Oc2ccc(-c3ccnc(Nc4ccc(N5CCOCC5)cc4)n3)cc2C#N)C1 [Example 53, 2-[(1-acetylazetidin-3-yl)oxy]-5-(2-{[4-(morpholin-4-yl)phenyl]amino}pyrimidin-4-yl)benzonitrile]	50 to 500
N#Cc1cc(-c2ccnc(Nc3ccc(N4CCOCC4)cc3)n2)ccc1OCC1CNC1 [Example 39, 2-(azetidin-3-ylmethoxy)-5-(2-{[4-(morpholin-4-yl)phenyl]amino}pyrimidin-4-yl)benzonitrile]	5 to 50
N#Cc1cc(-c2ccnc(Nc3ccc(N4CCOCC4)cc3)n2)ccc1OC1CCN(C(=O)C(F)(F)F)CC1 [Example 247, 5-(2-{[4-(Morpholin-4-yl)phenyl]amino}pyrimidin-4-yl)-2-{[1-(trifluoroacetyl)piperidin-4-yl]oxy}benzonitrile]	5 to 50

More lines, now with the values ahead:

IC50 [nM]	SMILES
5 to 50	CC(=O)N1CCCC(COc2ccc(-c3ccnc(Nc4ccc(N5CCOCC5)cc4)n3)cc2C#N)C1 (stereo not drawn) [Example 161]
5 to 50	CO[C@@H](C)C(=O)N1CCC(Oc2ccc(-c3ccnc(Nc4ccc(N5CCOCC5)cc4)n3)cc2C#N)CC1 [Example 99]
50 to 500	N#Cc1cc(-c2ccnc(Nc3ccc(N4CCOCC4)cc3)n2)ccc1OCCC1CCNCC1 [compound 472, 5-(2-{[4-(morpholin-4-yl)phenyl]amino}pyrimidin-4-yl)-2-[2-(piperidin-4-yl)ethoxy] benzonitrile]
5 to 50	N#Cc1cc(-c2ccnc(Nc3ccc(N4CCOCC4)cc3)n2)ccc1NC(=O)NC1CCOCC1 [Example 92, 1-[2-cyano-4-(2-{[4-(morpholin-4-yl)phenyl]amino}pyrimidin-4-yl)phenyl]-3-(tetrahydro-2H-pyran-4-yl)urea]
5 to 50	COc1ccc(Nc2nccc(-c3ccc(OCc4ccccc4)c(C#N)c3)n2)cc1OC [Example 106, 2-(Benzyloxy)-5-{2-[(3,4-dimethoxyphenyl)amino]pyrimidin-4-yl}benzonitrile]

Reference: patent US20150352108A1, “AMINO-PYRIMIDINE COMPOUNDS AS INHIBITORS OF TBK1 AND/OR IKK EPSILON” (Alzheimer's Institute of America, priority 2009, published 2015)
